According to patent US7335770B2, “Triazine compounds and their analogs, compositions, and methods” (Reddy U5 Therapeutics, Inc., priority 2004, dated 2008):
Read-outs that look alike come from different tables or passages of the source.

Test system: smooth muscle cells (SMC)
Assay: anti-proliferation assay (perlecan)
Format: cell-based
Settings: for activity in anti-proliferation assay (Perlecan), in words: using the same activity scale used in Table 3; for IC50: anti-proliferation assay (perlecan)
Experimental: The activity scale used in Table 3 as follows (numbers are inclusive): “+++” represents IC50 of less than about 3 μM; “++” represents IC50 of between about 3 and about 7 μM; and “+” represents IC50 of greater than about 7 μM. In addition, compounds, to include compositions thereof, encompassed within the scope of structures Ia-XXIVa, respectively, or listed in Tables 1A and 1E may be likewise employed in this embodiment and/or aspect of the present invention. Further, any hydrogen atoms that are required for any atom to attain its usual valence in a structure presented in Table 3, whether a carbon atom or a heteroatom, should be inferred if it is not specifically indicated.
In addition to the above compounds, the following compounds and compositions comprising these compounds are active in an anti-proliferation assay (Perlecan). These compounds and compositions comprising these compounds are, among other things, generally useful for treating cardiovascular disorders associated with proliferative activity. Specifically, these compounds include N^2-cycloheptyl-N^4-(3-fluoro-4-methoxyphenyl)-N^6-methyl-N^6-(1-methyl-piperidin-4-yl)-1,3,5-triazine-2,4,6-triamine, and N^2-cycloheptyl-N^4-methyl-N^4-(1-methyl-piperidin-4-yl)-N^6-naphthalen-2-yl-1,3,5-triazine-2,4,6-triamine.
Methods for identifying the activity and screening for one or more of these compounds or molecules that induce synthesis of proteoglycans such as HSPG (heparan sulfate proteoglycan) are taught in U.S. patent application Ser. No. 10/091,357, which is incorporated herein in its entirety. Assays of effects of compounds in vivo are also taught in the incorporated references and are known to those skilled in the art. In general, methods comprise the addition of such compounds to assays and measurement of HSPG synthesis including, but not limited to, the production of syndecans, glypicans and perlecans, for example, syndecans 1, 2 and 4; and glypican-1. Other assays that can be used to determine the activity of the compounds of the present invention include other methods for measuring the induction of perlecan synthesis. For example, in one assay, perlecan is induced in cells by certain inducers, and the response is measured. Compounds of the present invention are then added to a replicate assay and the effect on perlecan induction is determined. Using such methods, compounds are determined that can either inhibit perlecan, elevate induction of perlecan, or that have no effect at all. Those compounds that are effective as therapeutic agents can then be used in animals, humans or patients with cellular proliferation disease aspects, such as vascular-associated diseases or SMC proliferation pathologies.
Another assay for determining compounds having SMC effects comprises adding a composition suspected of affecting SMC proliferation to smooth muscle cells in growth medium or serum-free medium. The change in cell proliferation can be measured by methods known to those skilled in the art, such as incorporation of labeled nucleotides into dividing cells' DNA, and compared to the proliferation of cells which are not treated with the compound. Other measurements include directly determining levels of HSPG synthesis by measuring the amount or change in amount of HSPG such as with ELISA for HSPGs, and compared to the amount of HSPG synthesis in untreated cells. Other indirect or direct measurement are contemplated by the present invention and are known to those skilled in the art. For example, such methods include, but are not limited to, measurement of RNA levels, RT-PCR, Northern blotting, Western blotting promoter-based assays to identify compounds that affect one or more proteoglycans and assays for proteoglycan biological activity shown by recombinant proteins, partially purified proteins, or lysates from cells expressing proteoglycans in the presence or absence of compounds of interest.

[1] = class of IC50, read-out: Activity (note 1)
[2] = some cells print no unit, read-out: Avg IC-50

| Structure (SMILES) | activity in anti-proliferation assay (Perlecan), in words | IC50 [1] [µM] | IC50 [2] [µM] |
| --- | --- | --- | --- |
| COc1cc(OC)c(-c2nc(Nc3ccc(OC)c(Cl)c3)nc(NC3CCCCCC3)n2)c(OC)c1 [N-(3-Chloro-4-methoxy-phenyl)-N′-cycloheptyl-6-(2,4,6-trimethoxy-phenyl)-[1,3,5]triazine-2,4-diamine] | high activity |  |  |
| COc1ccc(-c2nc(Nc3ccc(OC)c(Cl)c3)nc(NC3CCCCCC3)n2)c(OC)c1 [N-(3-Chloro-4-methoxy-phenyl)-N′-cycloheptyl-6-(2,4-dimethoxy-phenyl)-[1,3,5]triazine-2,4-diamine] | high activity |  |  |
| COc1ccc(Nc2nc(NC3CCCCCC3)nc(Sc3c(Cl)cccc3Cl)n2)cc1Cl [N-(3-Chloro-4-methoxy-phenyl)-N′-cycloheptyl-6-(2,6-dichloro-phenylsulfanyl)-[1,3,5]triazine-2,4-diamine] | high activity |  |  |
| COc1ccc(Nc2nc(NC3CCCCCC3)nc(Oc3ccccc3F)n2)cc1Cl [N-(3-Chloro-4-methoxy-phenyl)-N′-cycloheptyl-6-(2-fluoro-phenoxy)-[1,3,5]triazine-2,4-diamine] | high activity |  |  |
| COc1ccc(Nc2nc(NC3CCCCCC3)nc(Oc3ccccc3I)n2)cc1Cl [N-(3-Chloro-4-methoxy-phenyl)-N′-cycloheptyl-6-(2-iodo-phenoxy)-[1,3,5]triazine-2,4-diamine] | high activity |  |  |
| COc1ccc(Nc2nc(NC3CCCCCC3)nc(Sc3ccccc3OC)n2)cc1Cl [N-(3-Chloro-4-methoxy-phenyl)-N′-cycloheptyl-6-(2-methoxy-phenylsulfanyl)-[1,3,5]triazine-2,4-diamine] | high activity |  |  |
| COc1ccc(Nc2nc(NC3CCCCCC3)nc(Sc3ccc(F)cc3)n2)cc1Cl [N-(3-Chloro-4-methoxy-phenyl)-N′-cycloheptyl-6-(4-fluoro-phenylsulfanyl)-[1,3,5]triazine-2,4-diamine] | high activity |  |  |
| COc1ccc(Nc2nc(NC3CCCCCC3)nc(Oc3ccc(I)cc3)n2)cc1Cl [N-(3-Chloro-4-methoxy-phenyl)-N′-cycloheptyl-6-(4-iodo-phenoxy)-[1,3,5]triazine-2,4-diamine] | high activity |  |  |
| COc1ccc(Nc2nc(NC3CCCCCC3)nc(Oc3cccc(C)n3)n2)cc1Cl [N-(3-Chloro-4-methoxy-phenyl)-N′-cycloheptyl-6-(6-methyl-pyridin-2-yloxy)-[1,3,5]triazine-2,4-diamine] | high activity |  |  |
| COc1ccc(Nc2nc(NC3CCCCCC3)nc(Oc3cccnc3)n2)cc1Cl [N-(3-Chloro-4-methoxy-phenyl)-N′-cycloheptyl-6-(pyridin-3-yloxy)-[1,3,5]triazine-2,4-diamine] | high activity |  |  |
| COc1ccc(Nc2nc(NC3CCCCCC3)nc(OCC3CCCO3)n2)cc1Cl (stereo not drawn) [N-(3-Chloro-4-methoxy-phenyl)-N′-cycloheptyl-6-(tetrahydro-furan-2-ylmethoxy)-[1,3,5]triazine-2,4-diamine] | high activity |  |  |
| COc1ccc(Nc2nc(NC3CCCCCC3)nc(OCCOc3ccccc3F)n2)cc1Cl [N-(3-Chloro-4-methoxy-phenyl)-N′-cycloheptyl-6-[2-(2-fluoro-phenoxy)-ethoxy]-[1,3,5]triazine-2,4-diamine] | high activity |  |  |
| COc1ccc(Nc2nc(NC3CCCCCC3)nc(OC(C)C)n2)cc1Cl [N-(3-Chloro-4-methoxy-phenyl)-N′-cycloheptyl-6-isopropoxy-[1,3,5]triazine-2,4-diamine] | high activity |  |  |
| COc1ccc(Nc2nc(NC3CCCCCC3)nc(Sc3ccccc3)n2)cc1Cl [N-(3-Chloro-4-methoxy-phenyl)-N′-cycloheptyl-6-phenylsulfanyl-[1,3,5]triazine-2,4-diamine] | high activity |  |  |
| COc1ccc(Nc2nc(NCC3CCCO3)nc(NC3CCCCCC3)n2)cc1Cl (stereo not drawn) [N-(3-Chloro-4-methoxy-phenyl)-N′-cycloheptyl-N″-(tetrahydro-furan-2-ylmethyl)-[1,3,5]triazine-2,4,6-triamine] | high activity |  |  |
| COc1ccc(Nc2nc(NC3CCCCCC3)nc(NC3CCNCC3)n2)cc1Cl [N-(3-Chloro-4-methoxy-phenyl)-N′-cycloheptyl-N″-piperidin-4-yl-[1,3,5]triazine-2,4,6-triamine] | high activity |  |  |
| CCN1CCCC1CNc1nc(Nc2ccc(OCc3ccccc3)c(Cl)c2)nc(NC2CCCCCC2)n1 (stereo not drawn) [N-(4-Benzyloxy-3-chloro-phenyl)-N′-cycloheptyl-N″-(1-ethyl-pyrrolidin-2-ylmethyl)-[1,3,5]triazine-2,4,6-triamine] | high activity |  |  |
| CCOc1nc(Nc2ccc(OC)c(F)c2)nc(NC2CCCCCC2)n1 [N-Cycloheptyl-6-ethoxy-N′-(3-fluoro-4-methoxy-phenyl)-[1,3,5]triazine-2,4-diamine] | high activity |  |  |
| CCN1CCCC1CNc1nc(Nc2ccc(C)c(F)c2)nc(NC2CCCCCC2)n1 (stereo not drawn) [N-Cycloheptyl-N′-(1-ethyl-pyrrolidin-2-ylmethyl)-N″-(3-fluoro-4-methyl-phenyl)-[1,3,5]triazine-2,4,6-triamine] | high activity |  |  |
| Cc1ccc(Nc2nc(NC3CCCCCC3)nc(N(C)C3CCN(C)CC3)n2)cc1F [N-Cycloheptyl-N′-(3-fluoro-4-methyl-phenyl)-N″-methyl-N″-(1-methyl-piperidin-4-yl)-[1,3,5]triazine-2,4,6-triamine] | high activity |  |  |
| CN1CCC(N(C)c2nc(Nc3cccc(F)c3)nc(NC3CCCCCC3)n2)CC1 [N-Cycloheptyl-N′-(3-fluoro-phenyl)-N″-methyl-N″-(1-methyl-piperidin-4-yl)-[1,3,5]triazine-2,4,6-triamine] | high activity |  |  |
| CN1CCC(N(C)c2nc(Nc3cccc([N+](=O)[O-])c3)nc(NC3CCCCCC3)n2)CC1 [N-Cycloheptyl-N′-methyl-N′-(1-methyl-piperidin-4-yl)-N″-(3-nitro-phenyl)-[1,3,5]triazine-2,4,6-triamine] | high activity |  |  |
| COc1ccc(Nc2nc(NC3CCCCCC3)nc(N(C)C3CCN(C)CC3)n2)cc1F [N^2-cycloheptyl-N^4-(3-fluoro-4-methoxyphenyl)-N^6-methyl-N^6-(1-methyl-piperidin-4-yl)-1,3,5-triazine-2,4,6-triamine] | medium or moderate activity |  |  |
| CN1CCC(N(C)c2nc(Nc3ccc4ccccc4c3)nc(NC3CCCCCC3)n2)CC1 [N^2-cycloheptyl-N^4-methyl-N^4-(1-methyl-piperidin-4-yl)-N^6-naphthalen-2-yl-1,3,5-triazine-2,4,6-triamine] | high activity |  |  |
| COc1ccc(Nc2nc(NC3CCCCCC3)nc(OCC3CCCN3C)n2)cc1Cl (stereo not drawn) [drawing 575, N-(3-Chloro-4-methoxy-phenyl)-N′-cyclo-heptyl-6-(1-methyl-pyr-rolidin-2-ylmethoxy)-[1,3,5]tri-azine-2,4-diamine] |  | 3 to 7 | 5 |
| COc1ccc(Nc2nc(NC3CCCCCC3)nc(OC3CCN(C)CC3)n2)cc1Cl [drawing 576, N-(3-Chloro-4-methoxy-phenyl)-N′-cyclo-heptyl-6-(1-methyl-piper-idin-4-yloxy)-[1,3,5]triazine-2,4-di-amine] |  | 3 to 7 | 5.7 |
| COc1ccc(Nc2nc(NC3CCCCCC3)nc(OC3CCCN(C(C)=O)C3)n2)cc1Cl (stereo not drawn) [drawing 577, 1-{3-[4-(3-Chloro-4-methoxy-phenyl-amino)-6-cyclo-heptylamino-[1,3,5]triazin-2-yl-oxy]-piperidin-1-yl}-ethanone] |  | 3 to 7 | 6.5 |
